Measurements reported in US12544395B2, “Combination compositions comprising a beta-lactamase inhibitor and uses thereof” (priority 2018, dated 2026).

Assays:
Type in all cases: cell-based
[1] = system: E. coli 1924; test: Broth microdilution MIC (strain enzymes: TEM-12); conditions: alone
[2] = system: E. coli 2150; test: Broth microdilution MIC (strain enzymes: SHV-3, TEM-1); conditions: Escherichia coli, 2150; alone; read-out: MIC of cefdinir (CDR)
[3] = system: E. coli 2806; test: Broth microdilution MIC (strain enzymes: SHV-12, TEM-1); conditions: alone
[4] = system: E. coli 3174; test: Broth microdilution MIC (strain enzymes: TEM-1, CTXM-15); conditions: alone
[5] = system: E. coli 3327; test: Broth microdilution MIC (strain enzymes: TEM-1, SHV-12); conditions: alone
[6] = system: E. coli BAS 1; test: Broth microdilution MIC (strain enzymes: none detected); conditions: Escherichia coli, BAS1; alone; read-out: MIC of cefdinir (CDR)
[7] = system: E. coli ESBL 2; test: Broth microdilution MIC (strain enzymes: TEM-1); conditions: Escherichia coli, ESBL2; alone; read-out: MIC of cefdinir (CDR)
[8] = system: E. coli ESBL 4; test: Broth microdilution MIC (strain enzymes: CTX-M15, TEM-1); conditions: Escherichia coli, ESBL4; alone; read-out: MIC of cefdinir (CDR)
[9] = system: E. coli ESBL 5; test: as above; conditions: Escherichia coli, ESBL5; alone; read-out: MIC of cefdinir (CDR)
[10] = system: E. coli SI-AIRT-4; test: Broth microdilution MIC (strain enzymes: TEM-1); conditions: alone
[11] = system: E. coli Si-FDL-GES; test: microbe, parasite or virus in culture; conditions: Escherichia coli, read-out: MIC of cefdinir (CDR)
[12] = system: E. coli SI-LP377; test: microbe, parasite or virus in culture; conditions: Escherichia coli, SILP377, read-out: MIC of cefdinir (CDR)
[13] = system: E. coli SI-M004; test: Broth microdilution MIC (strain enzymes: SHV-2, GES-12); conditions: Escherichia coli, SIM004; alone; read-out: MIC of cefdinir (CDR)
[14] = system: E. coli SI-NO36; test: Broth microdilution MIC (strain enzymes: SHV-11, TEM-1); conditions: alone
[15] = system: E. coli SI-PBLII; test: Broth microdilution MIC (strain enzymes: CTX-M2, TEM-1); conditions: alone
[16] = system: E. coli SI-V502; test: Broth microdilution MIC (strain enzymes: TEM-29, CTX-M15); conditions: alone
[17] = system: E. coli 25922; test: Broth microdilution MIC (strain enzymes: None detected); conditions: alone
[18] = system: K. oxytoca 169219; test: Broth microdilution MIC (strain enzymes: TEM-1, CTXM-15); conditions: Klebsiella oxytoca, 169219; alone; read-out: MIC of cefdinir (CDR)
[19] = system: K. oxytoca 176877; test: Broth microdilution MIC (strain enzymes: SHV-105); conditions: alone
[20] = system: K. oxytoca 496 #2; test: Broth microdilution MIC (strain enzymes: SHV-105, TEM-1); conditions: alone
[21] = system: K. pneumoniae 3151; test: Broth microdilution MIC (strain enzymes: SHV-12, TEM-1); conditions: Klebsiella pneumoniae, 3151; alone; read-out: MIC of cefdinir (CDR)
[22] = system: K. pneumoniae 115468; test: Broth microdilution MIC (strain enzymes: TEM-1); conditions: alone
[23] = system: K. pneumoniae 153239; test: Broth microdilution MIC (strain enzymes: SHV-11, TEM-1); conditions: alone
[24] = system: K. pneumoniae 170375; test: Broth microdilution MIC (strain enzymes: SHV-12, CTX-M15 and TEM-1); conditions: Klebsiella pneumoniae, 170375; alone; read-out: MIC of cefdinir (CDR)
[25] = system: K. pneumoniae 304487; test: Broth microdilution MIC (strain enzymes: SHV-12,TEM-1); conditions: alone
[26] = system: K. pneumoniae 319478; test: Broth microdilution MIC (strain enzymes: SHV-12, CTX-M3 and TEM-1); conditions: Klebsiella pneumoniae, 319478; alone; read-out: MIC of cefdinir (CDR)
[27] = system: K. pneumoniae 329633; test: Broth microdilution MIC (strain enzymes: SHV-5, TEM-1); conditions: alone
[28] = system: K. pneumoniae 11/23 LF#2; test: microbe, parasite or virus in culture
[29] = system: K. pneumoniae ESBL 10; test: Broth microdilution MIC (strain enzymes: SHV-12, TEM-1); conditions: alone
[30] = system: K. pneumoniae ESBL 7 #1; test: as above; conditions: Klebsiella pneumoniae; alone; read-out: MIC of cefdinir (CDR)
[31] = system: K. pneumoniae ESBL 8 #1; test: Broth microdilution MIC (strain enzymes: TEM-1, SHV-12); conditions: alone
[32] = system: K. pneumoniae ESBL 8 #2; test: Broth microdilution MIC (strain enzymes: SHV-12, TEM-1); conditions: alone
[33] = system: K. pneumoniae ESBL 7 #2; test: Broth microdilution MIC (strain enzymes: SHV-12, CTX-M15, TEM-1); conditions: Klebsiella pneumoniae; alone; read-out: MIC of cefdinir (CDR)
[34] = system: K. pneumoniae KI (KCl); test: Broth microdilution MIC (strain enzymes: TEM-10); conditions: alone
[35] = system: K. pneumoniae KP 3; test: Broth microdilution MIC (strain enzymes: SHV-1, TEM-1); conditions: Klebsiella pneumoniae, KP3; alone; read-out: MIC of cefdinir (CDR)
[36] = system: K. pneumoniae KP 4; test: Broth microdilution MIC (strain enzymes: SHV-2a, SHV-5, TEM-1); conditions: Klebsiella pneumoniae, KP4; alone; read-out: MIC of cefdinir (CDR)
[37] = system: K. pneumoniae KP 8; test: Broth microdilution MIC (strain enzymes: TEM-10, TEM-1, CTX-M15); conditions: Klebsiella pneumoniae, KP8; alone; read-out: MIC of cefdinir (CDR)
[38] = system: K. pneumoniae KPN 508; test: Broth microdilution MIC (strain enzymes: SHV-7, TEM-1); conditions: Klebsiella pneumoniae, KPN508; alone; read-out: MIC of cefdinir (CDR)
[39] = system: K. pneumoniae SI-KP NO30; test: Broth microdilution MIC (strain enzymes: TEM-26b, SHV-60, SHV-26); conditions: Klebsiella pneumoniae, SIKPNO30; alone; read-out: MIC of cefdinir (CDR)
[40] = system: K. pneumoniae BAA 1705; test: Broth microdilution MIC (strain KPC-producing); conditions: Klebsiella pneumoniae, BAA1705; alone; read-out: MIC of cefdinir (CDR)
[41] = system: panel of ESBL-producing Enterobacteriaceae (40 strains); test: Broth microdilution MIC50/MIC90 summary over the panel
[42] = Klebsiella pneumoniae, read-out: MIC of cefdinir (CDR)

C=CC1=C(C(=O)O)N2C(=O)[C@@H](NC(=O)/C(=N\O)c3csc(N)n3)[C@H]2SC1 [Cefdinir, cefdinir, reference compound]
2 µg/mL: MIC ([1]; Escherichia coli, 1924, read-out: MIC of cefdinir (CDR)) | MIC ([15]; Escherichia coli, read-out: MIC of cefdinir (CDR)) | MIC ([16]; Escherichia coli, SIV502, read-out: MIC of cefdinir (CDR)) | MIC ([23]; Klebsiella pneumoniae, 153239, read-out: MIC of cefdinir (CDR)) | MIC [28, 42]
1 µg/mL: MIC ([4]; Escherichia coli, 3174, read-out: MIC of cefdinir (CDR)) | MIC [34, 42]
0.25 µg/mL: MIC ([10]; Escherichia coli, SIAIRT4, read-out: MIC of cefdinir (CDR))
8 µg/mL: MIC ([19]; Klebsiella oxytoca, 176877, read-out: MIC of cefdinir (CDR)) | MIC ([22]; Klebsiella pneumoniae, 115468, read-out: MIC of cefdinir (CDR)) | MIC ([25]; Klebsiella pneumoniae, 304487, read-out: MIC of cefdinir (CDR)) | MIC [36]
0.5 µg/mL: MIC ([17]; Escherichia coli, 25922, read-out: MIC of cefdinir (CDR)) | MIC [37] | MIC [39]
4 µg/mL: MIC ([3]; Escherichia coli, 2806, read-out: MIC of cefdinir (CDR)) | MIC ([14]; Escherichia coli, SINO36, read-out: MIC of cefdinir (CDR)) | MIC [35]
32 µg/mL: MIC [13] | MIC [30] | MIC [38]
16 µg/mL: MIC ([5]; Escherichia coli, 3327, read-out: MIC of cefdinir (CDR)) | MIC ([20]; Klebsiella oxytoca, read-out: MIC of cefdinir (CDR)) | MIC ([27]; Klebsiella pneumoniae, 329633, read-out: MIC of cefdinir (CDR)) | MIC ([29]; Klebsiella pneumoniae, ESBL10, read-out: MIC of cefdinir (CDR)) | MIC [31, 42] | MIC [32, 42] | MIC50 ([41]; read-out: Cefdinir MIC50)
> 32 µg/mL: MIC [2] | MIC [6] | MIC [7] | MIC [8] | MIC [9] | MIC [11] | MIC [12] | MIC [18] | MIC [21] | MIC [24] | MIC [26] | MIC [33] | MIC [40] | MIC90 ([41]; read-out: Cefdinir MIC90)

CC1=C(C(=O)O)N2C(=O)[C@@H](NC(=O)[C@H](N)c3ccccc3)[C@H]2SC1 [Cephalexin, cefalexin, reference compound]
1 µg/mL: MIC of cefalexin (LEX) [4] | MIC of cefalexin (LEX) [34]
16 µg/mL: MIC of cefalexin (LEX) [5] | MIC of cefalexin (LEX) [20] | MIC of cefalexin (LEX) [27] | MIC of cefalexin (LEX) [29] | MIC of cefalexin (LEX) [31] | MIC of cefalexin (LEX) [32]
0.25 µg/mL: MIC of cefalexin (LEX) [10]
0.5 µg/mL: MIC of cefalexin (LEX) [17]
8 µg/mL: MIC of cefalexin (LEX) [19] | MIC of cefalexin (LEX) [22] | MIC of cefalexin (LEX) [25]
>32 µg/mL: Cephalexin MIC50 ([41]; No BLI) | Cephalexin MIC90 ([41]; No BLI)
2 µg/mL: MIC of cefalexin (LEX) [1] | MIC of cefalexin (LEX) [15] | MIC of cefalexin (LEX) [16] | MIC of cefalexin (LEX) [23] | MIC of cefalexin (LEX) ([28]; alone)
4 µg/mL: MIC of cefalexin (LEX) [3] | MIC of cefalexin (LEX) [14]
